{"source": "patent US20250057958A1", "about": "“CYTOTOXICITY TARGETING CHIMERAS FOR CCR2-EXPRESSING CELLS” (GLAXOSMITHKLINE INTELLECTUAL PROPERTY DEVELOPMENT LIMITED, priority 2022, published 2025)", "key": {"[1]": {"target": "T1, CHOK1 cells engineered to overexpress human CCR2 (Homo sapiens, UniProt P41597)", "T1 construct": "expressed in transfected cells; host or cells: CHOK1 cells", "experiment": "Antibody dependent cellular cytotoxicity (ADCC) reporter assay", "type": "cell-based", "details": "with anti-cotinine antibody (SEQ ID NO: 11/12, human IgG1 Fc S239D/I332E); Jurkat FcγRIIIa NFAT-luciferase reporter cells; 12-18 hours; average if more than one run; read-out: ADCC Reporter Assay pEC50 (converted)", "method": "An antibody dependent cellular cytoxocity reporter assay was conducted using the following four assay components: (i) ARM compound of Formula (I) targeting CCR2 (concentrations ranging from 1 pM to 10 μM) (ii) anti-cotinine antibody having a heavy chain sequence of SEQ ID NO: 11 and a light chain sequence of SEQ ID NO: 12 (rabbit variable region with human IgG1 Fc domain containing a DE mutation (S239D/I332E)) (concentrations ranging from 0.01 μg/mL to 200 μg/mL); (iii) target cells: CHOK1 cells engineered to overexpress either human CCR2 (typically 1000-20,000 cells perwell) and (iv) reporter cells: Jurkat cells engineered to express FcγRIIIa with the reporter gene luciferase under the control of the NFAT promoter (typically 3000-75,000 cells per well). Reagents were combined in a final volume of 20 μL in a 384—well tissue culture treated plate. All four assay components were incubated together for about 12-18 hours. Thereafter, BioGlo Detection reagent (Promega) was added to the wells to lyse the cells and provide a substrate for the luciferase reporter protein. Luminescence signal was measured on a microplate reader and signal:background was calculated by dividing the signal of a test well by the signal obtained when no ARM compound of Formula (I) was added. EC50 calculations were done using Graphpad Prism Software, specifically a nonlinear regression curve fit (Y=Bottom+(Top−Bottom)/(1+10 ^((Log EC50−X)*HillSlope))).\nARMs compounds of Formula (I) of the invention were tested for ADCC activity in the above assay in or more experimental runs and the results are shown in Table 3 below. Potency of the compounds of Formula (I) of the invention is reported as a pEC50 value. The pEC50 value is the negative log of the EC50 value, wherein the EC50 value is the half maximal effective concentration measured in molar (M). For compounds tested in more than one experimental run, the pEC50 value is reported as an average."}, "[2]": {"target": "human alpha1 nicotinic acetylcholine (nACh) receptor (Homo sapiens, UniProt P02708+Q07001)", "sequence (P02708 21-457)": "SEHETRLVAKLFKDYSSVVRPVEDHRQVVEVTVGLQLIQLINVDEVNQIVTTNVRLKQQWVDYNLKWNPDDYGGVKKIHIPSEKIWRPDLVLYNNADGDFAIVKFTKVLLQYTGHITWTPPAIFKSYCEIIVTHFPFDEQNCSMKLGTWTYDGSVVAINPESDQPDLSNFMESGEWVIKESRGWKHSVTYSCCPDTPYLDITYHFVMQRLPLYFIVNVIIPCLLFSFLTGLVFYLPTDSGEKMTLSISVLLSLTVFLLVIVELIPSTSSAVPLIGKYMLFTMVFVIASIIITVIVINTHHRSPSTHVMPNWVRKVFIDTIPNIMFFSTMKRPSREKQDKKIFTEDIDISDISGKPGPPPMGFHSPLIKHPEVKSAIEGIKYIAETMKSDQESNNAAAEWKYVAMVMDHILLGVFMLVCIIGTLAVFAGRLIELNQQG", "sequence (P11230 24-501 partner)": "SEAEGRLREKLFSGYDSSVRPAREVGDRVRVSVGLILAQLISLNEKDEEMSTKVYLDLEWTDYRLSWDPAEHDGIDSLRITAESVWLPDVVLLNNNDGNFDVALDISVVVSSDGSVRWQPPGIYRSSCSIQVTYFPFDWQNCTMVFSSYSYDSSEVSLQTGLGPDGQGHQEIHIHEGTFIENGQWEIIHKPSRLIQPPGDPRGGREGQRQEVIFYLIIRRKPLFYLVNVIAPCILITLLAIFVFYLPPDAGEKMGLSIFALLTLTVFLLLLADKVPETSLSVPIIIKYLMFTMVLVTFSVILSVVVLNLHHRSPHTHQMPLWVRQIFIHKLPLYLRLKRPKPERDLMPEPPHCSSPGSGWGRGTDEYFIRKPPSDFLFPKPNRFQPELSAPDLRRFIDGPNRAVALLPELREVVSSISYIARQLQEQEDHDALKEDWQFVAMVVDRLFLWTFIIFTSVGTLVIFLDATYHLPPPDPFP", "sequence (Q07001 22-517)": "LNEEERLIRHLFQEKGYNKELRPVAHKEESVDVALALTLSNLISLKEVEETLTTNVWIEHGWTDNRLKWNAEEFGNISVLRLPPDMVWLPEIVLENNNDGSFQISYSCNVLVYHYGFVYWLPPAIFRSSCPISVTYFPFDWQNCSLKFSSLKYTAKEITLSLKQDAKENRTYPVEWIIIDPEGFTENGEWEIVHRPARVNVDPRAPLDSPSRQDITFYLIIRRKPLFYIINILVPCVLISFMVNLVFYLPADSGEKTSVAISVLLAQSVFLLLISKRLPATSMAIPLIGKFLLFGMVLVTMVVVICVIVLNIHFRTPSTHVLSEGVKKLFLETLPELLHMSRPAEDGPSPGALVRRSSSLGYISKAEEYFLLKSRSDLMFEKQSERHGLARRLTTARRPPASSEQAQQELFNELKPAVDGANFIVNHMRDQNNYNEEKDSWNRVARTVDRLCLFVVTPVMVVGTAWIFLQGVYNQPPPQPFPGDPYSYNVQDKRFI", "experiment": "Nicotinic acetylcholine receptor antagonism assay (IONFlux automated patch clamp)", "type": "cell-based", "details": "for IC50: nAChR antagonism, stimulated with ACh, average if more than one run", "source_text": "Cells expressing human alpha1 nicotinic acetylcholine (nACh) receptor (nAChR) were washed and dissociated using Trypsin containing buffer. Cells were then washed and seeded at a density of 3-5 million cells/mL and allowed to grow for 3 days. […] The receptor was then stimulated via addition of acetylcholine (ACh) and activation of the receptor was monitored via the IONFlux automated patch clamp system. IonFlux Data Analyzer software was utilized to perform leak subtraction and measure (min) peak current amplitude.\nData processing: (1) Current values recorded for vehicle only applications in individual traps/patterns were subtracted from corresponding current amplitude values for control, test article and control+test article. (2) Control response was calculated as % of the average response of the 3rd out of total 3 ACh (10 mM) applications alone. In rare situations, if the 3rd ACh response was obscured due to technical artifacts, the 2nd and/or 1st ACh (10 mM) application was considered as control. The peak current amplitude generated in the presence of each test article concentration was then used to calculate the % inhibition as compared to control response (10 mM ACh alone). These estimates were further corrected for vehicle response and run down corrected by normalizing with time matched control responses (10 mM ACh alone). The corrected percentages were then fit with a non-linear function in GraphPad Prism 6 (or later versions) to determine the IC50.\nExclusion criteria: (i) any n's with poor recording quality, (ii) control current amplitude <500 pA or (iii) significant outliers, as determined by the Grubbs' test.\nARMs compounds of Formula (I) of the invention were tested for antagonism of the nAChR in the above assay in […] experimental runs and the results are shown in Table 5 below. Antagonistic activity of the compounds of Formula (I) of the invention is reported as an IC50 value (half maximal inhibitory concentration) and the maximum percentage antagonism observed at the highest concentration of compound of Formula (I) tested, as indicated in Table 5. For compounds tested in more than one experimental run, the IC50 value is reported as an average."}}}
{"smiles": "CC(=O)N[C@@H]1C[C@H](NC(C)(C)C)CC[C@@H]1N1CC[C@H](Nc2nc(NCC3CCN(C(=O)[C@H]4CC[C@H](NC(=O)CCCO[C@H]5CC[C@H](OCCNC(=O)[C@H]6CC(=O)N(C)[C@@H]6c6cccnc6)CC5)CC4)CC3)nc3ccc(C(F)(F)F)cc23)C1=O", "note": "[Example 2, (2S,3S)-N-(2-(((1R,4S)-4-(4-(((1S,4R)-4-(4-(((4-(((S)-1-((1S,2R,4R)-2-Acetamido-4-(tert-butylamino)cyclohexyl)-2-oxopyrrolidin-3-yl)amino)-6-(trifluoromethyl)quinazolin-2-yl)amino)methyl)piperidine-1-carbonyl)cyclohexyl)amino)-4-oxobutoxy)cyclohexyl)oxy)ethyl)-1-methyl-5-oxo-2-(pyridin-3-yl)pyrrolidine-3-carboxamide]", "values": [{"measurement": "EC50", "setting": "[1]", "value": 0.316, "unit": "nM"}, {"measurement": "Emax at 11.11 µM", "setting": "[2]; maximum percentage antagonism at highest concentration tested, 11.11 μM, read-out: Maximum Response (%)", "value": 9, "unit": "%"}, {"measurement": "IC50", "setting": "[2]", "value": "> 11100", "unit": "nM"}]}
{"smiles": "CC(=O)N[C@@H]1C[C@H](NC(C)(C)C)CC[C@@H]1N1CC[C@H](Nc2nc(CCNC(=O)[C@H]3CC[C@H](NC(=O)CCCO[C@H]4CC[C@H](OCCNC(=O)[C@H]5CC(=O)N(C)[C@@H]5c5cccnc5)CC4)CC3)nc3ccc(C(F)(F)F)cc23)C1=O", "note": "[Example 4, (2S,3S)-N-(2-(((1R,4S)-4-(4-(((1S,4R)-4-((2-(4-(((S)-1-((1S,2R,4R)-2-Acetamido-4-(tert-butylamino)cyclohexyl)-2-oxopyrrolidin-3-yl)amino)-6-(trifluoromethyl)quinazolin-2-yl)ethyl)carbamoyl)cyclohexyl)amino)-4-oxobutoxy)cyclohexyl)oxy)ethyl)-1-methyl-5-oxo-2-(pyridin-3-yl)pyrrolidine-3-carboxamide]", "values": [{"measurement": "EC50", "setting": "[1]", "value": 0.251, "unit": "nM"}, {"measurement": "Emax at 100 µM", "setting": "[2]; maximum percentage antagonism at highest concentration tested, 100 μM, read-out: Maximum Response (%)", "value": 48, "unit": "%"}, {"measurement": "IC50", "setting": "[2]", "value": "> 100000", "unit": "nM"}]}
{"smiles": "CC(=O)N[C@@H]1C[C@H](N(C)C(C)C)CC[C@@H]1N1CC[C@H](Nc2nc(CCCNC(=O)[C@H]3CC[C@H](NC(=O)CCCO[C@H]4CC[C@H](OCCNC(=O)[C@H]5CC(=O)N(C)[C@@H]5c5cccnc5)CC4)CC3)nc3ccc(C(F)(F)F)cc23)C1=O", "note": "[Example 6, (2S,3S)-N-(2-(((1R,4S)-4-(4-(((1S,4R)-4-((3-(4-(((S)-1-((1S,2R,4R)-2-Acetamido-4-(isopropyl(methyl)amino)cyclohexyl)-2-oxopyrrolidin-3-yl)amino)-6-(trifluoromethyl)quinazolin-2-yl)propyl)carbamoyl)cyclohexyl)amino)-4-oxobutoxy)cyclohexyl)oxy)ethyl)-1-methyl-5-oxo-2-(pyridin-3-yl)pyrrolidine-3-carboxamide]", "values": [{"measurement": "EC50", "setting": "[1]", "value": 0.158, "unit": "nM"}, {"measurement": "Emax at 33.3 µM", "setting": "[2]; maximum percentage antagonism at highest concentration tested, 33.3 μM, read-out: Maximum Response (%)", "value": 48, "unit": "%"}, {"measurement": "IC50", "setting": "[2]", "value": "> 33300", "unit": "nM"}]}
{"smiles": "CC(=O)N[C@@H]1C[C@H](NC(C)(C)C)CC[C@@H]1N1CC[C@H](Nc2nc(OC3CCN(C(=O)[C@H]4CC[C@H](NC(=O)CCCO[C@H]5CC[C@H](OCCNC(=O)[C@H]6CC(=O)N(C)[C@@H]6c6cccnc6)CC5)CC4)CC3)nc3ccc(C(F)(F)F)cc23)C1=O", "note": "[Example 7, (2S,3S)-N-(2-(((1R,4S)-4-(4-(((1S,4R)-4-(4-((4-(((S)-1-((1S,2R,4R)-2-acetamido-4-(tert-butylamino)cyclohexyl)-2-oxopyrrolidin-3-yl)amino)-6-(trifluoromethyl)quinazolin-2-yl)oxy)piperidine-1-carbonyl)cyclohexyl)amino)-4-oxobutoxy)cyclohexyl)oxy)ethyl)-1-methyl-5-oxo-2-(pyridin-3-yl)pyrrolidine-3-carboxamide]", "values": [{"measurement": "EC50", "setting": "[1]", "value": 79.4, "unit": "nM"}]}
{"smiles": "CC(=O)N[C@@H]1C[C@H](NC(C)(C)C)CC[C@@H]1N1CC[C@H](Nc2nc(OCC3CCN(C(=O)[C@H]4CC[C@H](NC(=O)CCCO[C@H]5CC[C@H](OCCNC(=O)[C@H]6CC(=O)N(C)[C@@H]6c6cccnc6)CC5)CC4)CC3)nc3ccc(C(F)(F)F)cc23)C1=O", "note": "[Example 8, (2S,3S)-N-(2-(((1R,4S)-4-(4-(((1S,4R)-4-(4-(((4-(((S)-1-((1S,2R,4R)-2-Acetamido-4-(tert-butylamino)cyclohexyl)-2-oxopyrrolidin-3-yl)amino)-6-(trifluoromethyl)quinazolin-2-yl)oxy)methyl)piperidine-1-carbonyl)cyclohexyl)amino)-4-oxobutoxy)cyclohexyl)oxy)ethyl)-1-methyl-5-oxo-2-(pyridin-3-yl)pyrrolidine-3-carboxamide]", "values": [{"measurement": "EC50", "setting": "[1]", "value": 50.1, "unit": "nM"}]}
{"smiles": "CC(=O)N[C@@H]1C[C@H](NC(C)(C)C)CC[C@@H]1N1CC[C@H](Nc2nc(C3CCN(C(=O)[C@H]4CC[C@H](NC(=O)CCCO[C@H]5CC[C@H](OCCNC(=O)[C@H]6CC(=O)N(C)[C@@H]6c6cccnc6)CC5)CC4)CC3)nc3ccc(C(F)(F)F)cc23)C1=O", "note": "[Example 9, (2S,3S)-N-(2-(((1R,4S)-4-(4-(((1S,4R)-4-(4-(4-(((S)-1-((1S,2R,4R)-2-Acetamido-4-(tert-butylamino)cyclohexyl)-2-oxopyrrolidin-3-yl)amino)-6-(trifluoromethyl)quinazolin-2-yl)piperidine-1-carbonyl)cyclohexyl)amino)-4-oxobutoxy)cyclohexyl)oxy)ethyl)-1-methyl-5-oxo-2-(pyridin-3-yl)pyrrolidine-3-carboxamide]", "values": [{"measurement": "EC50", "setting": "[1]", "value": 0.631, "unit": "nM"}, {"measurement": "Emax at 11.1 µM", "setting": "[2]; maximum percentage antagonism at highest concentration tested, 11.1 μM, read-out: Maximum Response (%)", "value": 2, "unit": "%"}, {"measurement": "IC50", "setting": "[2]", "value": "> 11100", "unit": "nM"}]}
{"smiles": "CC(=O)N[C@@H]1C[C@H](NC(C)(C)C)CC[C@@H]1N1CC[C@H](Nc2nc(NCCNC(=O)[C@H]3CC[C@H](NC(=O)CCCO[C@H]4CC[C@H](OCCNC(=O)[C@H]5CC(=O)N(C)[C@@H]5c5cccnc5)CC4)CC3)nc3ccc(C(F)(F)F)cc23)C1=O", "note": "[Example 12, (2S,3S)-N-(2-(((1R,4S)-4-(4-(((1S,4R)-4-((2-((4-(((S)-1-((1S,2R,4R)-2-Acetamido-4-(tert-butylamino)cyclohexyl)-2-oxopyrrolidin-3-yl)amino)-6-(trifluoromethyl)quinazolin-2-yl)amino)ethyl)carbamoyl)cyclohexyl)amino)-4-oxobutoxy)cyclohexyl)oxy)ethyl)-1-methyl-5-oxo-2-(pyridin-3-yl)pyrrolidine-3-carboxamide]", "values": [{"measurement": "EC50", "setting": "[1]", "value": 0.251, "unit": "nM"}]}
{"smiles": "CC(=O)N[C@@H]1C[C@H](NC(C)(C)C)CC[C@@H]1N1CC[C@H](Nc2nc(NC3CCN(C(=O)[C@H]4CC[C@H](NC(=O)CCCO[C@H]5CC[C@H](OCCNC(=O)[C@H]6CC(=O)N(C)[C@@H]6c6cccnc6)CC5)CC4)CC3)nc3ccc(C(F)(F)F)cc23)C1=O", "note": "[Example 13, (2S,3S)-N-(2-(((1R,4S)-4-(4-(((1S,4R)-4-(4-((4-(((S)-1-((1S,2R,4R)-2Acetamido-4-(tert-butylamino)cyclohexyl)-2-oxopyrrolidin-3-yl)amino)-6-(trifluoromethyl)quinazolin-2-yl)amino)piperidine-1-carbonyl)cyclohexyl)amino)-4-oxobutoxy)cyclohexyl)oxy)ethyl)-1-methyl-5-oxo-2-(pyridin-3-yl)pyrrolidine-3-carboxamide]", "values": [{"measurement": "EC50", "setting": "[1]", "value": 0.316, "unit": "nM"}, {"measurement": "Emax at 33.33 µM", "setting": "[2]; maximum percentage antagonism at highest concentration tested, 33.33 μM, read-out: Maximum Response (%)", "value": 68, "unit": "%"}, {"measurement": "IC50", "setting": "[2]", "value": 10100, "unit": "nM"}]}
